{"source": "paper PMC9598926", "about": "“Design and Synthesis of (Z)-5-(Substituted benzylidene)-3-cyclohexyl-2-thioxothiazolidin-4-one Analogues as Anti-Tyrosinase and Antioxidant Compounds: In Vitro and In Silico Insights” (Antioxidants, 2022)", "key": {"[1]": {"system": "tyrosinase", "test": "Western blot of cytosolic tyrosinase in α–MSH/IBMX stimulated B16F10 cells", "type": "cell-based, murine", "conditions": "5, 10, 20 µM", "method": "2.15. Extraction of Cytosolic and Nuclear Proteins from Cells\nWestern blotting was used to determine tyrosinase and MITF protein levels. Briefly, B16F10 cells were seeded in 60 mm culture dishes in the presence or absence of α–MSH (1 µM) plus IBMX (200 µM) with or without analog 3 (5, 10, and 20 µM for final concentrations) for 24 h, washed twice with ice-cold PBS and centrifuged for 10 min at 12,000× g. Cell pellets were suspended in 10 mM Tris (pH 8.0) containing 0.1% NP-40, 1 mM DTT, 1.5 mM MgCl2, 1 mM PMSF, and protease inhibitors (GenDEPOT, Barker, TX, USA), incubated on ice for 15 min, and centrifuged for 10 min at 12,000× g at 4 °C. Supernatants were used as cytosolic fractions. […] The protein concentrations were determined using a bicinchoninic acid (BCA)™ assay kit (Pierce, Rockford, IL, USA). […]\nLysed protein samples from cells were boiled for 10 min in sample-loading buffer (0.1% bromophenol blue, 25% glycerol, 60 mM Tris-HCl (pH 6.8), 2% SDS, and 0.5% β-mercaptoethanol) at a volume ratio of 1:4. […] Immunoreactive proteins were detected using the enhanced chemiluminescence (ECL) detection reagent in the SuperSignal® West Pico Chemiluminescent Substrate kit (Advansta, San Jose, CA, USA). Western blot bands were visualized using a Davinch-Chemi imager™ (Davinch-K, Seoul, Korea), and quantification was conducted by densitometric analysis using CS analyzer software ver. […]"}, "[2]": {"biological_target": "T1, B16F10 cellular tyrosinase (Mus musculus, UniProt P11344)", "T1 construct": "B16F10 murine melanoma cells were used as a cellular tyrosinase source; endogenous in cells; host or cells: B16F10 murine melanoma cells (ATCC)", "T1 sequence (P11344 19-533)": "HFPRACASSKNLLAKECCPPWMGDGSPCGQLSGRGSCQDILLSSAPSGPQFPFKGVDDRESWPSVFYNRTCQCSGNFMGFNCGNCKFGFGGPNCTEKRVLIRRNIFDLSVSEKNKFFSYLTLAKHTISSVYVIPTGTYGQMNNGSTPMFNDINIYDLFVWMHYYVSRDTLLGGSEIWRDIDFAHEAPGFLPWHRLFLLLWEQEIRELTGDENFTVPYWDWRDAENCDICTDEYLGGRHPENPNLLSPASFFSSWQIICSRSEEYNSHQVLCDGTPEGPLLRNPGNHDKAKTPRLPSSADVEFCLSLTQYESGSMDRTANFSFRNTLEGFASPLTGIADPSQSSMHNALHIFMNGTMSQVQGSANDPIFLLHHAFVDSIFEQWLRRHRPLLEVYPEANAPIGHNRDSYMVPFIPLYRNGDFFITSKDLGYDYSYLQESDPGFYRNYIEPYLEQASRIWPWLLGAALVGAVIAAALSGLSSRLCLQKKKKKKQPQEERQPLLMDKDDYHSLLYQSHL", "test": "Cellular tyrosinase activity assay in α–MSH plus IBMX stimulated B16F10 cells", "type": "cell-based, murine", "conditions": "5, 10, 20 µM, 72 h", "quoted_text": "Cellular Tyrosinase Activity Assay\nBriefly, cultured B16F10 cells were seeded in 6-well culture plate at 1 × 10^4 cells/well and incubated for 12 h under cell culture conditions to allow them to adhere to well bottoms. […] Cells were then washed with PBS twice and exposed to a lysis buffer solution (100 µL) comprised of 5 µL of 20% Triton X-100, 5 µL of 2 mM PMSF, and 90 µL of 50 mM phosphate buffer in pH 6.5. Lysates were kept at −80 °C for 30 min, defrosted, and centrifuged at 12,000 rpm for 30 min at 4 °C. Supernatants (80 µL) were mixed with 20 µL of 2 mg/mL of L-dopa in a 96-well plate, and absorbance of each well was measured at 475 nm every 10 min for 1 h at 37 °C using a microplate reader (VersaMax®, Molecular Devices, Sunnyvale, CA, USA). Experiments were performed independently 3 times.\nCellular tyrosinase activities were determined by measuring optical densities at 475 nm."}}, "data": [{"compound": "O=C1/C(=C/c2ccc(O)cc2O)SC(=S)N1C1CCCCC1", "note": "[Analog 3, (Z)-3-Cyclohexyl-5-(2,4-dihydroxybenzylidene)-2-thioxothiazolidin-4-one]", "values": [{"measurement": "effect on α–MSH/IBMX-induced increase in tyrosinase expression (protein, cytosol)", "setting": "[1]", "result": "significantly and concentration-dependently reduced"}, {"measurement": "effect on α–MSH plus IBMX induced increase in cellular tyrosinase activity", "setting": "[2]", "result": "significantly and dose-dependently reduced"}]}]}
